Entries after “also recorded” stand apart in the source; their conditions may differ.
Columns and labels:
Jurkat cells [1] = assay: NADH levels in Jurkat cells (NADH/NAD fluorometric assay kit); assay type: cell-based, human; details: 24 hours after addition, different concentrations
Protocol: By inhibiting modified PFK-M enzyme in the cancer cells, glycolytic flux should be decreased and concomitantly NADH levels reduced. To verify that, the amounts of reduced pyridine nucleotide was measured by NADH/NAD fluorometric assay kit (Abcam). The Jurkat cells were seeded into the wells of 96 wells plate at 5×10^5 cells per mL. The untreated cells (control) and the cells with specified amounts of added Inhibitors No. 3 and No. 9 were incubated for 24 hours.

[2] = target: T1, modified (47 kDa) 6-phosphofructo-1-kinase (PFK-M), sfPFK-M fragments (Homo sapiens, UniProt P08237); assay: in vitro inhibition of purified recombinant modified (cancer-specific) PFK-M fragments
T1 sequence (P08237 1-443 limits assumed): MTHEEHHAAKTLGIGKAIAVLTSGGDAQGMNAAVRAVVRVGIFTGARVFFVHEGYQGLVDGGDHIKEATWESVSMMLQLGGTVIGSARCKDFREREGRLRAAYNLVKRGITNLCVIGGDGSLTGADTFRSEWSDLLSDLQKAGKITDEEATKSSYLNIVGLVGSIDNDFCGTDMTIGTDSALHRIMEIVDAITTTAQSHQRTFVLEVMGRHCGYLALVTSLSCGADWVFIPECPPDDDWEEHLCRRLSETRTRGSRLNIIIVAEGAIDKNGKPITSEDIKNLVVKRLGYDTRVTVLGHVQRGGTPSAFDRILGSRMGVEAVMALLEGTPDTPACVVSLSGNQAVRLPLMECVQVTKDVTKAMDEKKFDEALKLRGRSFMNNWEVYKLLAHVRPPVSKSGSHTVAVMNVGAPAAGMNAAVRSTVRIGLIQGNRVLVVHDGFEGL

[3] = system: human embryonic kidney (HEK 293) cells; assay: lactate excretion by non-tumorigenic HEK 293 cells; assay type: cell-based
Protocol: (§1) The effect of Inhibitor No. 3 on lactate excretion was tested also on two non-tumorigenic cell lines. First, fast proliferating human embryonic kidney (HEK 293) cells were assessed for lactate formation in the presence of Inhibitor No. 3. RPMI 1640 GlutaMAX medium (Thermo Fisher) supplemented with 10% FBS was used as a growth medium. […] About 95 mg/L of lactate were detected after 72 hours of incubation by untreated cells (control) and by the cells growing in the presence of Inhibitor No. 3 (Figure 9a). Similar results were recorded also by non-tumorigenic MCF-10A cell line isolated form the epithelial cells of the mammary gland. The cells were cultivated in MEBM medium supplemented by additives that were obtained as a MEGM Kit from Lonza/Clonetics Corporation. Characteristically these cells grew slower than HEK 293 cells with correspondingly slower lactate excretion rate. After 96 hours of incubation, only about 27 mg/L of lactate was detected in the medium. Again, no influence of different concentrations of Inhibitor No. 3 on lactate generation could be observed (Figure 9b).

MDA-MB-231 cells = assay: cytotoxicity in MDA-MB-231 cells (LDH kit); assay type: cell-based
Protocol: (§2) Lactate generation, growth yield and survival under normal and inhibitory conditions of three different tumorigenic cells lines were determined in more detailed measurements. […] Cytotoxicity was measured by the Lactate dehydrogenase (LDH) kit (Roche).
Inhibitors No. 23, 29, 30 and 31 were tested for preventing lactate generation by the MDA-MB-231 cells.

Caco-2 cells = assay: cytotoxicity in Caco-2 cells (lactate dehydrogenase (LDH) kit); assay type: cell-based
Protocol: as §2

Jurkat cells [4] = assay: growth and survival of Jurkat cells (Countess, Trypan blue); assay type: cell-based
Protocol: The effects of both inhibitors were tested also on growth of the non-adherent Jurkat cells. Total amount of cells and the number of dead cells was determined by the Countess (Invitrogen, Carlsbad, CA). […].

Jurkat cells [5] = assay: long-term fed-batch cultivation of Jurkat cells (18 days); details: 100 µM
MCF-10A cell line = assay: lactate excretion by non-tumorigenic MCF-10A cells; assay type: cell-based
Protocol: as §1

Jurkat cells [6] = assay: lactate excretion by Jurkat cells (enzymatic L-lactic acid kit); assay type: cell-based, human
Protocol: The cells were incubated in 1 mL volume (24 well plates) at 5% CO2 and 37°C. The inhibitors were added in 100 µM concentration. As a control, equivalent amount of DMSO as used for the addition of inhibitors was supplemented to the medium. The tests started with 1×10^5 cells per mL. Extracellular lactate excreted by the Jurkat cells was measured in the supernatant of the growth medium after the cells were removed by centrifugation at 1500 rpm for 5 minutes. Lactate concentration was determined enzymatically using L-Lactatic acid kit (K-LATE, Megazyme, Ireland).
Measurements of lactate excretion in the tumorigenic Jurkat cells and the cells treated with two selected inhibitors at different concentrations were repeated by more detailed measurements. The growth conditions were identical to those described in Experiment 2. No significant difference in lactate excretion could be observed by the treated and untreated cells during the initial stage of growth that lasted for approximately 12 hours. Later on lactate excretion by the Jurkat cells ceased in the presence of both inhibitors.

COLO 829 cells = assay: cytotoxicity in COLO 829 cells (LDH kit); assay type: cell-based
Protocol: as §2

[7] = sequential addition at 24-hour intervals, 92 hours, average over medium without and with inhibitor
[8] = single addition, average over control and different concentrations of inhibitor

O=C(CSc1nnc(-c2ccc3c(c2)OCO3)o1)Nc1ccon1 [Inhibitor No. 3, 2-[(5-benzo[1,3]dioxol-5-yl-1,3,4-oxadiazol-2-yl)sulfanyl]-N-isoxazol-3-yl-acetamide]
NADH levels (Jurkat cells [1]): steadily decreased in dose dependent manner | IC50 [2]: ~15 µM | reduction of lactate generation, HEK 293 ([3]; 72 hours of growth, different concentrations of inhibitor): no significant reduction of lactate generation | lactate detected, HEK 293 ([3]; after 72 hours of incubation, same for untreated control): About 95 mg/L | average percentages of dead cells, MDA-MB-231, sequential re-insertion (MDA-MB-231 cells; [7]): 2,05±0,18% | average percent of dead MDA-MB-231 cells (MDA-MB-231 cells; [8]): 7,2±0,47% | average percentages of dead cells, Caco-2, sequential re-insertion (Caco-2 cells; [7]): 5,38±0,4% | average percent of dead cells, Caco-2 (Caco-2 cells; [8]): 3,99±0,08% | dead cells (Jurkat cells [4]; Jurkat cells stained with Tripan blue): 3,21±0,27% | effect on growth of Jurkat cells (total cell numbers) (Jurkat cells [4]; different concentrations, 72 hours): remarkable reduction of growth rate at concentrations higher than 25 µM | viability of the Jurkat cells, long-term (Jurkat cells [5]; fed-batch, 18 days): slight decrease of viability | duration of slow reduction of lactate generation rate after the addition of inhibitor (Jurkat cells [5]; long term experiment): 24 to 48 h | lactate detected in the medium, MCF-10A (MCF-10A cell line; after 96 hours of incubation, no influence of inhibitor concentration): about 27 mg/L | influence on lactate generation, MCF-10A (MCF-10A cell line; different concentrations, 96 hours): no influence | time at which lactate production was averted (Jurkat cells [6]; inhibitor concentrations lower than 200 µM): about 24 hours | lactate excretion by the Jurkat cells (Jurkat cells [6]; preliminary test, 100 µM inhibitor, followed for 48 hours, versus DMSO control): Significantly lowered lactate excretions; also recorded: effectively prevented excretion | average percentages of dead cells, COLO 829, sequential re-insertion (COLO 829 cells; [7]): 1,95±0,15% | average percent of dead COLO 829 cells (COLO 829 cells; [8]): 5,01±1,08%

Reference: patent publication EP3833345B1, “SMALL MOLECULE-INHIBITORS OF 6-PHOSPHOFRUCTO-1-KINASE FOR REDUCING LACTATE GENERATION BY CANCER CELLS” (Kemijski Institut, priority 2018, dated 2020)
